# Test results published in the supplement of paper PMC10307832.
# Compound: CO[C@H]1C[C@@H]2CC[C@@H](C)[C@@](O)(O2)C(=O)C(=O)N2CCCC[C@H]2C(=O)O[C@H]([C@H](C)C[C@@H]2CC[C@@H](OCCO)[C@H](OC)C2)CC(=O)[C@H](C)/C=C(\C)[C@@H](O)[C@@H](OC)C(=O)[C@H](C)C[C@H](C)/C=C/C=C/C=C/1C [Everolimus] + CS(=O)(=O)N1CCN(Cc2cc3nc(-c4cccc5[nH]ncc45)nc(N4CCOCC4)c3s2)CC1 [Pictilisib] (partner 1 µM)
# Assay: relative viability (nuclei count vs DMSO), 5 days (fraction); higher = more cells survive
# Procedure, shortened: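 Medians of duplicate plates are given as relative viability. That measure is the nuclei count in treated wells divided by the count in vehicle wells. Counts were taken on 4× images of lung cancer cell lines in 1536-well plates, 5 days after pin-tool dosing the day after seeding with one drug alone or a fixed anchor-drug dose plus five library-drug doses (not always all listed) in √10 steps.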
Cell Line,relative viability (first compound 0.01 µM),relative viability (first compound 0.03162 µM),relative viability (first compound 0.1 µM),relative viability (first compound 0.3162 µM),relative viability (first compound 1 µM)
201T,0.59,0.604,0.528,0.568,0.645
A549,0.16,0.178,0.166,0.182,0.192
A-427,0.488,0.524,0.445,0.491,0.542
ABC-1,0.389,0.371,0.413,0.542,0.557
BEN,0.312,0.281,0.254,0.295,0.336
CAL-12T,0.324,0.26,0.377,0.287,0.304
COR-L23,0.354,0.409,0.378,0.366,0.483
COR-L 105,0.331,0.376,0.295,0.368,0.313
Calu-6,0.573,0.566,0.559,0.527,0.592
ChaGo-K-1,0.653,0.382,0.634,0.494,0.666
EBC-1,0.199,0.193,0.221,0.227,0.222
EKVX,0.251,0.24,0.234,0.245,0.22
EMC-BAC-2,0.368,0.349,0.298,0.42,0.39
EPLC-272H,0.274,0.295,0.188,0.211,0.262
H3255,0.35,0.332,0.302,0.294,0.281
HARA,0.236,0.278,0.227,0.228,0.238
HCC-15,0.633,0.517,0.372,0.539,0.545
HCC-44,0.429,0.427,0.309,0.55,0.323
HCC-78,0.193,0.19,0.201,0.185,0.16
HCC-366,0.116,0.0953,0.131,0.11,0.138
HCC-827,0.957,0.875,0.781,0.863,0.611
HOP-62,0.326,0.274,0.17,0.267,0.352
IA-LM,0.211,0.162,0.137,0.158,0.104
LC-2-ad,0.456,0.372,0.386,0.282,0.283
LCLC-97TM1,0.126,0.123,0.128,0.135,0.144
LCLC-103H,0.512,0.459,0.471,0.479,0.466

Cell Line,relative viability (first compound 0.01 µM),relative viability (first compound 0.03162 µM),relative viability (first compound 0.1 µM),relative viability (first compound 0.3162 µM),relative viability (first compound 1 µM)
LK-2,0.5,,0.37,0.322,0.386
LOU-NH91,0.516,0.484,0.462,0.485,0.465
LU99A,0.213,0.212,0.212,0.194,0.249
LXF-289,0.579,0.624,0.513,0.555,0.509
NCI-H23,0.334,0.268,0.216,0.312,0.344
NCI-H322M,0.445,0.445,0.352,0.429,0.397
NCI-H358,0.257,0.241,0.213,0.257,0.213
NCI-H441,0.272,0.358,0.296,0.282,0.331
NCI-H460,0.305,0.441,0.27,0.299,0.319
NCI-H520,0.186,0.197,0.204,0.185,0.165
NCI-H596,0.313,0.337,0.348,0.354,0.333
NCI-H647,0.261,0.299,0.215,0.213,0.256
NCI-H650,0.688,,0.498,0.569,0.505
NCI-H661,0.301,0.253,0.235,0.305,0.296
NCI-H727,0.268,0.274,0.309,0.239,0.275
NCI-H838,0.222,0.219,0.247,0.208,0.262
NCI-H1299,0.54,0.537,0.512,0.386,0.528
NCI-H1355,0.251,0.238,0.181,0.265,0.275
NCI-H1395,0.571,0.548,0.508,0.5,0.496
NCI-H1437,0.159,0.149,0.135,0.165,0.18
NCI-H1563,0.664,0.672,0.632,0.676,0.646
NCI-H1650,0.47,0.473,0.477,0.515,0.469
NCI-H1651,0.368,0.324,0.352,0.427,0.39
NCI-H1666,0.295,0.344,0.309,0.341,0.295
NCI-H1703,0.208,0.24,0.306,0.228,0.25
NCI-H1734,0.285,0.341,0.259,0.316,0.336

Cell Line,relative viability (first compound 0.01 µM),relative viability (first compound 0.03162 µM),relative viability (first compound 0.1 µM),relative viability (first compound 0.3162 µM),relative viability (first compound 1 µM)
NCI-H1755,0.334,0.381,0.292,0.354,0.329
NCI-H1792,0.189,0.14,0.121,0.148,0.105
NCI-H1793,0.225,0.222,0.141,0.237,0.19
NCI-H1915,0.622,0.33,0.493,0.625,0.555
NCI-H1944,0.315,0.314,0.248,0.31,0.284
NCI-H1975,0.223,0.242,0.194,0.211,0.199
NCI-H1993,0.793,0.739,0.715,0.786,0.86
NCI-H2009,0.565,0.591,0.394,0.673,0.504
NCI-H2023,0.164,0.144,0.135,0.174,0.111
NCI-H2085,0.346,0.358,0.368,0.348,0.377
NCI-H2087,0.502,0.595,0.48,0.722,0.591
NCI-H2126,0.373,0.34,0.359,0.392,0.409
NCI-H2170,0.229,0.234,0.159,0.214,0.198
NCI-H2228,0.28,0.206,0.209,0.289,0.243
NCI-H2347,0.288,0.281,0.4,0.368,0.358
NCI-H2405,0.265,0.291,0.294,0.294,0.275
NCI-H3122,0.364,0.421,0.288,0.372,0.348
PC-3 [JPC-3],0.581,0.585,0.516,0.622,0.53
PC-14,0.411,0.191,0.239,0.21,0.342
RERF-LC-KJ,0.345,0.445,0.214,0.409,0.238
SK-LU-1,0.296,0.307,0.289,0.341,0.345
SK-MES-1,0.281,0.243,0.265,0.236,0.215
SW 1573,0.303,0.341,0.28,0.304,0.249
UMC-11,0.292,0.273,0.28,0.299,0.324
